Results as given in US11845760B2, “PRMT5 inhibitors” (AMGEN INC., priority 2020, dated 2023).
pIC50: −log10 of the molar value. Where two headings read alike, the source gives them in different places.

What was measured:
HCT116 WT cells = assay: HCT116 WT cell line proliferation (CellTiter-Glo cell viability, 6 days); format: cell-based; settings: read-out: HCT-116 WT IC50
Outline: (§1)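 Isogenic HCT116 pair (both MTAP alleles knocked out vs parent) in RPMI 1640 + 10% FBS, seeded overnight at 37° C, 5% CO2, then exposed 6 days to 8- or 9-point 1:3 dilutions from 1 or 10 μM. CellTiter-Glo luminescence; IC50 from sigmoidal fit, Hill slope fixed −1, top 100%, or 4-parameter logistic.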

HCT116 MTAP null cells = assay: HCT116 MTAP null cell line proliferation (CellTiter-Glo cell viability, 6 days); format: cell-based; settings: read-out: HCT-116 MTAP null IC50
Outline: as §1

[1] = Homo sapiens, HCT-116, 144 h, HCT116 WT (parent) cells, 6 days of treatment, CellTiter-Glo cell viability
[2] = HCT116-MTAP null, 144 h, HCT116 MTAP null cells, 6 days of treatment, CellTiter-Glo cell viability
[3] = HCT116 WT (parent) cells, 6 days of treatment, CellTiter-Glo cell viability
[4] = HCT116 MTAP null cells, 6 days of treatment, CellTiter-Glo cell viability

Compound | pIC50 (HCT116 WT cells; [1]) | pIC50 (HCT116 MTAP null cells; [2]) | also measured
C[C@@H]1COC[C@H](c2ccc(OC3CC3)nn2)N1C(=O)c1cc2c3c(c(N)nc2cn1)COC3 [Example 550, (4-amino-1,3-dihydrofuro[3,4-c][1,7]naphthyridin-8-yl)((3S,5R)-3-(6-(cyclopropyloxy)-3-pyridazinyl)-5-methyl-4-morpholinyl)methanone] | 5.50 | 7.14 | 
(4-amino-7-fluoro-1,3- dihydrofuro[3,4-c]quinolin-8- yl)((3R)-3-hydroxy-3-(4- (trifluoromethyl)phenyl)-1- pyrrolidinyl)methanone and (4-amino-7-fluoro-1,3- dihydrofuro[3,4-c]quinolin-8- yl)((3S)-3-hydroxy-3-(4- (trifluoromethyl)phenyl)-1- pyrrolidinyl)methanone [Example 441] |  |  | pIC50 (HCT116 WT cells; [3]): 4.81; pIC50 (HCT116 MTAP null cells; [4]): 6.17
Cn1ncc2c3cc(C(=O)N4CCOCC4c4ccc(C(F)(F)F)cc4)ccc3nc(N)c21 (racemic) [Example 497, (4-amino-3-methyl-3H-pyrazolo[3,4-c]quinolin-8-yl)((3R)-3-(4-(trifluoromethyl)phenyl)-4-morpholinyl)methanone and (4-amino-3-methyl-3H-pyrazolo[3,4-c]quinolin-8-yl)((3S)-3-(4-(trifluoromethyl)phenyl)-4-morpholinyl)methanone] | 4.59 | 6.32 | 
CC(C)(C)OC(=O)N1CCN(C(=O)c2cc3c4c(c(N)nc3cn2)COC4)[C@@H](c2ccc(C(F)(F)F)cc2)C1 (single isomer, unassigned) [Example 589] |  |  | pIC50 (HCT116 WT cells; [3]): < 5.00; pIC50 (HCT116 MTAP null cells; [4]): 5.29
Nc1nc2ccc(C(=O)N3CCOCC3c3ccc(C(F)(F)F)nc3)cc2c2c1COC2 (racemic) [Example 513, (4-amino-1,3-dihydrofuro[3,4-c]quinolin-8-yl)-[rac-(3S)-3-[6-(trifluoromethyl)-3-pyridyl]morpholin-4-yl]methanone] | < 5.00 | 6.42 | 
Nc1nc2ccc(C(=O)N3CCOC[C@@H]3c3ccc(CC(F)(F)F)cc3)cc2c2c1COC2 (single isomer, unassigned) [Example 603] | 4.99 | 6.38 | 
Nc1nc2cnc(C(=O)N3CC[S+]([O-])C[C@@H]3c3ccc(C(F)(F)F)cc3)cc2c2c1COC2 (stereo partly drawn) [Example 623, (4-Amino-1,3-dihydrofuro[3,4-c][1,7]naphthyridin-8-yl)((3S)-1-oxido-3-(4-(trifluoromethyl)phenyl)thiomorpholino)methanone] |  |  | pIC50 (HCT116 WT cells; Homo sapiens, HCT-116, 144 h): 4.59; pIC50 (HCT116 MTAP null cells; HCT116-MTAP null, 144 h): 6.07
C[C@H]1OCc2c1c(N)nc1ccc(C(=O)N3C[C@@H](c4ccc(F)cc4)[C@H](c4cc[nH]n4)C3)cc21 (racemic) [Example 434, ((3R)-4-amino-3-methyl-1,3-dihydrofuro[3,4-c]quinolin-8-yl)((3R,4S)-3-(4-fluorophenyl)-4-(1H-pyrazol-3-yl)-1-pyrrolidinyl)methanone and ((3R)-4-amino-3-methyl-1,3-dihydrofuro[3,4-c]quinolin-8-yl)((3S,4R)-3-(4-fluorophenyl)-4-(1H-pyrazol-3-yl)-1-pyrrolidinyl)methanone] | 5.09 | 6.33 | 
Nc1nc2cnc(C(=O)N3CCOC[C@@H]3c3ccc(C(F)(F)F)nn3)cc2c2c1COC2 [Example 549, (4-amino-1,3-dihydrofuro[3,4-c][1,7]naphthyridin-8-yl)((3S)-3-(6-(trifluoromethyl)-3-pyridazinyl)-4-morpholinyl)methanone] | 4.67 | 6.25 | 
Cn1ncc2c3cc(C(=O)N4CCOCC4c4ccc(OC(F)(F)F)cc4)ccc3nc(N)c21 (racemic) [Example 498, (4-amino-3-methyl-3H-pyrazolo[3,4-c]quinolin-8-yl)((3R)-3-(4-(trifluoromethoxy)phenyl)-4-morpholinyl)methanone and (4-amino-3-methyl-3H-pyrazolo[3,4-c]quinolin-8-yl)((3S)-3-(4-(trifluoromethoxy)phenyl)-4-morpholinyl)methanone] | 4.67 | 6.15 | 
Cn1ncc2c(N)nc3cc(F)c(C(=O)N4CCOC[C@@H]4c4ccc(C(F)(F)F)nn4)cc3c21 [Example 560, (4-amino-7-fluoro-1-methyl-1H-pyrazolo[4,3-c]quinolin-8-yl)((3S)-3-(6-(trifluoromethyl)-3-pyridazinyl)-4-morpholinyl)methanone] | 5.54 | 7.38 | 
Nc1nc2cnc(C(=O)N3CCSC[C@@H]3c3ccc(C(F)(F)F)cc3)cc2c2c1COC2 (single isomer, unassigned) [Example 595, (4-amino-1,3-dihydrofuro[3,4-c][1,7]naphthyridin-8-yl)((3S)-3-(4-(trifluoromethyl)phenyl)-4-thiomorpholinyl)methanone or (4-amino-1,3-dihydrofuro[3,4-c][1,7]naphthyridin-8-yl)((3R)-3-(4-(trifluoromethyl)phenyl)-4-thiomorpholinyl)methanone] | 5.10 | 6.86 | 
C[C@H]1COC[C@@H](c2ccc(OC(F)F)nc2)N1C(=O)c1cc2c3c(c(N)nc2cn1)COC3 (racemic) [Example 318, (4-amino-1,3-dihydrofuro[3,4-c][1,7]naphthyridin-8-yl)((3R,5S)-3-(6-(difluoromethoxy)-3-pyridinyl)-5-methyl-4-morpholinyl)methanone and (4-amino-1,3-dihydrofuro[3,4-c][1,7]naphthyridin-8-yl)((3S,5R)-3-(6-(difluoromethoxy)-3-pyridinyl)-5-methyl-4-morpholinyl)methanone] | 5.56 | 7.09 | 
Nc1nc2cnc(C(=O)N3CCOC[C@@H]3c3ccc(OC(F)F)nc3)cc2c2c1COC2.Nc1nc2cnc(C(=O)N3CCOC[C@H]3c3ccc(OC(F)F)nc3)cc2c2c1COC2 [Example 394, (4-amino-1,3-dihydrofuro[3,4-c][1,7]naphthyridin-8-yl)((3R)-3-(6-(difluoromethoxy)-3-pyridinyl)-4-morpholinyl)methanone (4-amino-1,3-dihydrofuro[3,4-c][1,7]naphthyridin-8-yl)((3S)-3-(6-(difluoromethoxy)-3-pyridinyl)-4-morpholinyl)methanone] |  |  | pIC50 (HCT116 WT cells; [3]): 4.44; pIC50 (HCT116 MTAP null cells; [4]): 6.20

Continued, in another order:

pIC50 (HCT116 WT cells; [1]) | pIC50 (HCT116 MTAP null cells; [2]) | Compound | also measured
5.71 | 7.21 | Nc1nc2cc(Cl)c(C(=O)N3CCOCC3c3ccc(F)c(OC(F)(F)F)c3)cc2c2c1COC2 (racemic) [Example 346, (4-amino-7-chloro-1,3-dihydrofuro[3,4-c]quinolin-8-yl)((3R)-3-(4-fluoro-3-(trifluoromethoxy)phenyl)-4-morpholinyl)methanone and (4-amino-7-chloro-1,3-dihydrofuro[3,4-c]quinolin-8-yl)((3S)-3-(4-fluoro-3-(trifluoromethoxy)phenyl)-4-morpholinyl)methanone] | 
5.91 | 7.51 | C[C@@H]1COC[C@H](c2ccc(C(F)(F)F)nc2)N1C(=O)c1cc2c3c(c(N)nc2cn1)COC3 [Example 524, (4-amino-1,3-dihydrofuro[3,4-c][1,7]naphthyridin-8-yl)((3R,5S)-3-methyl-5-(6-(trifluoromethyl)-3-pyridinyl)-4-morpholinyl)methanone] | 
6.21 | 7.64 | C[C@H]1OCc2c1c(N)nc1ccc(C(=O)N3[C@@H](C)COC[C@H]3c3ccc(C(F)(F)F)cn3)cc21 (racemic) [Example 372, ((3R)-4-amino-3-methyl-1,3-dihydrofuro[3,4-c]quinolin-8-yl)((3R,5S)-3-methyl-5-(5-(trifluoromethyl)-2-pyridinyl)-4-morpholinyl)methanone and ((3R)-4-amino-3-methyl-1,3-dihydrofuro[3,4-c]quinolin-8-yl)((3S,5R)-3-methyl-5-(5-(trifluoromethyl)-2-pyridinyl)-4-morpholinyl)methanone] | 
6.35 | 7.82 | Cn1ncc2c(N)nc3cnc(C(=O)N4CCOC[C@@H]4c4ccc(C(F)(F)C(F)(F)F)cc4)cc3c21 [Example 410, (4-amino-1-methyl-1H-pyrazolo[4,3-c][1,7]naphthyridin-8-yl)((3S)-3-(4-(pentafluoroethyl)phenyl)-4-morpholinyl)methanone] | 
6.43 | 7.89 | COc1ccc([C@H]2COC[C@@H](C)N2C(=O)c2cc3c4c(c(N)nc3cc2F)[C@@H](C)OC4)nn1 [Example 552, ((3R)-4-amino-7-fluoro-3-methyl-1,3-dihydrofuro[3,4-c]quinolin-8-yl)((3S,5R)-3-(6-methoxy-3-pyridazinyl)-5-methyl-4-morpholinyl)methanone] | 
5.58 | 7.36 | C[C@@H]1COC[C@H](c2ccc(OC(F)(F)F)cc2)N1C(=O)c1ccc2nc(N)c3c(cnn3C)c2c1 [Example 534, (4-amino-3-methyl-3H-pyrazolo[3,4-c]quinolin-8-yl)((3R,5S)-3-methyl-5-(4-(trifluoromethoxy)phenyl)-4-morpholinyl)methanone] | 
5.91 | 7.54 | C[C@H]1COC[C@@H](c2ccc(OC(F)(F)F)cn2)N1C(=O)c1ccc2nc(N)c3c(c2c1)COC3 (racemic) [Example 376, (4-amino-1,3-dihydrofuro[3,4-c]quinolin-8-yl)((3R,5S)-3-methyl-5-(5-(trifluoromethoxy)-2-pyridinyl)-4-morpholinyl)methanone and (4-amino-1,3-dihydrofuro[3,4-c]quinolin-8-yl)((3S,5R)-3-methyl-5-(5-(trifluoromethoxy)-2-pyridinyl)-4-morpholinyl)methanone] | 
